Earlier results as cited in patent publication US12018199B2, “Fire retardant and fire blocking composition for use in forest fires, and method of making same” (priority 2020, dated 2024).
Read-outs that look alike come from different tables or passages of the source.

Details: in water

Solubility (0 °C): 66.7 g/100 g of water | Solubility (20 °C): 108 g/100 g of water | Solubility (40 °C): 167 g/100 g of water | Solubility (60 °C): 251 g/100 g of water | Solubility (80 °C): 400 g/100 g of water | Solubility (100 °C): 733 g/100 g of water
Structure (SMILES): NC(N)=O [Urea, urea]
